# Molecular target: T1, OmTRPV1 (Oncorhynchus masou, UniProt Z9PIN9CDR2)
# T1 construct: cDNA cloned from spinal cord into pOX(+) via EcoRI/NotI; forward primer starts at ATG, reverse primer with stop codon; cRNA-injected Xenopus laevis oocytes; S487 and V525 correspond to mammalian S512 and T550
# T1 sequence (Z9PIN9CDR2 1-804): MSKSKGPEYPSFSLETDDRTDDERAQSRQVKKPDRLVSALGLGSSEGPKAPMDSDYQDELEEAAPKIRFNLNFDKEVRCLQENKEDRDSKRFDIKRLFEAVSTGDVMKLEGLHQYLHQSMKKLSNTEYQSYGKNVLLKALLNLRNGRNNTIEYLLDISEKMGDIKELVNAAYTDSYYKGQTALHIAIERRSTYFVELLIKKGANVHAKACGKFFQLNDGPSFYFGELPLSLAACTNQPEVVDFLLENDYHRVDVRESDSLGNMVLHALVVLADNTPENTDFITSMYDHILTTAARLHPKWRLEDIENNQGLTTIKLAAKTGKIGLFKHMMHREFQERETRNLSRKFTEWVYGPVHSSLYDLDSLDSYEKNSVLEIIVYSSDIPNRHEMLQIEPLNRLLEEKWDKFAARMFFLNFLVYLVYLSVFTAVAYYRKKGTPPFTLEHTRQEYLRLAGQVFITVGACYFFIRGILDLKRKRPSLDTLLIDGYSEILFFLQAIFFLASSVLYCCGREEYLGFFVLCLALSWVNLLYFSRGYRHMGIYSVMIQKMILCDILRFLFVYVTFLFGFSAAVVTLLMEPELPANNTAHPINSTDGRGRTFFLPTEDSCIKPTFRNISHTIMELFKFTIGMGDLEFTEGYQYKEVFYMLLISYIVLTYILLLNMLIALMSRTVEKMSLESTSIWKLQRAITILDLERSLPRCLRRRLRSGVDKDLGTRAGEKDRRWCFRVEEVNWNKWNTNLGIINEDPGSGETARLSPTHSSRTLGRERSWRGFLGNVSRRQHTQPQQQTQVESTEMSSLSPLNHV
# Test: two-electrode voltage-clamp, Xenopus laevis oocytes
# Format: cell-based
structure (smiles),measurement,value
COc1cc(CNC(=O)CCCC/C=C/C(C)C)ccc1O [capsaicin],EC50,10.4 µM

# Source: article PMC9309644, “Functional analysis of thermo-sensitive TRPV1 in an aquatic vertebrate, masu salmon (Oncorhynchus masou ishikawae)” (Biochemistry and Biophysics Reports, 2022)
